Data from PMC9889419 (Pharmacological Reports, 2022).
Read-outs that look alike come from different tables or passages of the source. Marks after values point to notes of the source that are not given here.

How the values were obtained:
mice [1] = experiment: Rotarod test (neurotoxicity); type: in vivo; conditions: for Rotarod: neurotoxic at: mice, ip; for Number of animals active or toxic over the number tested: Rotarod;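 on all read-outs here: in vivo neurotoxicity screen run within the NIH Epilepsy Therapy Screening Program (ETSP, formerly Anticonvulsant Screening Program)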
Experimental: (§1) The assays were carried out within the Epilepsy Therapy Screening Program (ETSP, previously known as the Anticonvulsant Screening Program, ASP), Epilepsy Branch, National Institute of Neurological and Communicative Disorders and Stroke, National Institutes of Health in Rockville, MD, USA [23].
(§2) The obtained compounds were screened for antiseizure activity and neurotoxicity in vivo within the Epilepsy Therapy Screening Program (ETSP, previously known as the Anticonvulsant Screening Program, ASP), Epilepsy Branch, National Institute of Neurological and Communicative Disorders and Stroke, National Institutes of Health in Rockville, MD, USA [23].

mice [2] = conditions: for MES: active at: mice, ip; for Number of animals active or toxic over the number tested: MES
Experimental: as §1, §2

mice [3] = conditions: ip, cited from earlier work
mice [4] = conditions: 32 mA, ip; cited from earlier work
mice [5] = conditions: ip; cited from earlier work
mice [6] = experiment: Formalin test (first screening); type: in vivo; conditions: ip
Experimental: Formalin test. The first screening in doses 15 and 30 mg/kg was performed at the Jagiellonian University-Medical College. […] After 30 min, animals were injected with 20 μL of a 0.5% formalin solution into the plantar surface of the hind paw. The total time spent by animal licking or biting the injected paw was assessed for the following 40 min.

mice [7] = experiment: Tail immersion test (local anesthetic activity); type: in vivo
Experimental: The tail immersion test in mice. […] The method was performed by subcutaneous (sc) injection of the tested substance dissolved in saline, at a concentration range 0.06–2%, in a constant volume of 0.2 mL about 1 cm from the root of the mouse tail. Fifteen minutes later, the 3-cm distal part of the tail was immersed into temperature-controlled water (50 ± 0.5 °C). The reaction time (latency until the tail is pulled away) was measured by the means of a chronometer. In this assay the cut-off was 20 s [29].

guinea pigs [8] = experiment: Corneal anesthesia; type: in vivo; conditions: 5 min
Experimental: A. Corneal anesthesia. […] The corneal reflex was examined by irritation of right eye conjunctiva (studied eye) and a left eye conjunctiva (control eye) by horsehair. The strength of local anesthetic activity was determined from the moment of solution instillation to the moment of reflex return. The presence or lack of corneal reflex were assessed. The eye conjunctiva irritation was done 6 times (every 5 s) with the interval of 5 min during the first 30 min [31].

guinea pigs [9] = experiment: Infiltration anesthesia (intradermal wheal test); type: in vivo
Experimental: A painful reaction to a prick of the skin at the centre of the wheal three times and every 5 s with 5 min intervals during the first 30 min of observation was tested. The experiment was continued to achieve a return of a reaction to the prick. The control wheal was done by an intradermal injection of 0.1 mL of 0.9% NaCl [25]. Local anesthesia was determined by calculating the ratio of the number of positive responses (no flinch) to the number of negative responses (flinch).

mice [10] = experiment: Subcutaneous pentylenetetrazole seizure test (ScPTZ, SCMET); type: in vivo; conditions: mice, ip, 0.5 h
Experimental: as §1

mice [11] = experiment: Antiseizure activity and preliminary toxicity screening; type: in vivo; conditions: ip
mice [12] = experiment: 6 Hz test; type: in vivo; conditions: for Number of animals active or toxic over the number tested: 6 Hz
Experimental: The 6 Hz model test was carried out according to the protocol originally described by Brown et al. [54] and more recently by Barton et al. [55] and Kamiński et al. [47] and is a model of pharmacoresistant epilepsy [56].

rats = conditions: ip; cited from earlier work
guinea pigs [13] = conditions: 0.5%, cited from earlier work
mice [14] = conditions: cited from earlier work

For `Cc1cccc(Cl)c1OCCN[C@@H]1CCCC[C@H]1O` (relative stereo) [Compound 8, R,S-trans-2-((2-(2-chloro-6-methylphenoxy)ethyl)amino)cyclohexan-1-ol], the “Rotarod: neurotoxic at” value (mice [1]; 0.5 h) was 100 mg/kg and the “MES: active at” value (mice [2]; 0.5 h) was 30 mg/kg.

For `CC(=O)[C@H]1CC[C@H]2[C@@H]3CC[C@H]4C[C@H](O)CC[C@]4(C)[C@H]3CC[C@]12C` [Allopregnanolone], the “MES ED50” value (mice [3]) is given as greater than 100 mg/kg, the “MES TPE” value (mice [3]) is given as 0.17 h and the “6 Hz ED50” value (mice [4]) is given as 14.2 (10.3–19.4) mg/kg. The “6 Hz TPE” value (mice [4]) was 0.17 h, the “ScPTZ ED50” value (mice [5]) was 13.7 (10.1–18.7) mg/kg and the “ScPTZ TPE” value (mice [5]) was 0.17 h.

With `Cc1cccc(Cl)c1OCCNCC(C)O` (centres unmarked) [Compound 1, R,S-1-((2-(2-chloro-6-methylphenoxy)ethyl)amino)propan-2-ol] the “Rotarod: neurotoxic at” value (mice [1]; 0.5 h) was 100 mg/kg and the “MES: active at” value (mice [2]; 0.5 h) was 30 mg/kg.

In the case of `Cc1cccc(Cl)c1OCCNC(C)CO` (centres unmarked) [Compound 2, R,S-2-((2-(2-chloro-6-methylphenoxy)ethyl)amino)propan-1-ol], the “Rotarod: neurotoxic at” value (mice [1]; 0.5 h) is reported as “MES: active at 100 Rotarod: neurotoxic at 100 mg/kg” and the “MES: active at” value (mice [2]; 0.5 h) is reported as “MES: active at 100 Rotarod: neurotoxic at 100 mg/kg”.

With `CCC(O)CNCCOc1c(C)cccc1Cl` (centres unmarked) [Compound 3, R,S-1-((2-(2-chloro-6-methylphenoxy)ethyl)amino)butan-2-ol] the “Rotarod: neurotoxic at” value (mice [1]; 0.5 h) was 100 mg/kg and the “MES: active at” value (mice [2]; 0.5 h) was 30 mg/kg.

In the case of `CC[C@@H](CO)NCCOc1c(C)cccc1Cl.Cl` [Compound 6a, S-( +)-2-((2-(2-chloro-6-methylphenoxy)ethyl)amino)butan-1-ol hydrochloride], the “Rotarod: neurotoxic at” value (mice [1]; 0.5 h) is reported as “MES: active at 100 Rotarod: neurotoxic at 100 mg/kg”, the “% of effect (I phase)” value (mice [6]; 30.0 mg/kg) is reported as 33.4% and the “% of effect (II phase)” value (mice [6]; 30.0 mg/kg) is reported as 10.2%. For the same molecule, the “Time of licking paw ± SEM (I phase)” value (mice [6]; 30.0 mg/kg) was 59.7 ± 6.4 s, the “formalin test (I phase): active at” value (mice [6]) was 30 mg/kg and the “Prolongation of the time reaction” value (mice [7]; 0.031%) was 60.0%. For the same molecule, the “Reaction time to painful stimulus” value (mice [7]; 0.031%) was 5.6 ± 0.9 s, the “Prolongation of the time reaction” value (mice [7]; 0.094%) was 82.9% and the “Reaction time to painful stimulus” value (mice [7]; 0.094%) was 6.4 ± 0.8 s. The “Prolongation of the time reaction” value (mice [7]; 0.125%) was 348.6%, the “Reaction time to painful stimulus” value (mice [7]; 0.125%) was 15.7 ± 1.8 s and the “Prolongation of the time reaction” value (mice [7]; 0.5%) was 457.1%. For the same molecule, the “Reaction time to painful stimulus” value (mice [7]; 0.5%) was 19.5 ± 0.5 s, the “Prolongation of the time reaction” value (mice [7]; 2.0%) was 437.1% and the “Reaction time to painful stimulus” value (mice [7]; 2.0%) was 18.8 ± 1.9 s. For the same molecule, the “Prolongation of the time reaction” value (mice [7]; […]) was 5.7%, the “Reaction time to painful stimulus” value (mice [7]; […]) was 3.7 ± 0.6 s and the “Inhibition of pain reaction” value (guinea pigs [8]; 0.5%) was 75*** %. For the same molecule, the “Inhibition of pain reaction” value (guinea pigs [8]; […]) was 63.89*** %, the “Inhibition of pain reaction” value (guinea pigs [9]; 0.5%, 30 min) was 93.75*** % and the “Inhibition of pain reaction” value (guinea pigs [9]; 0.5%, 60 min) was 43.75* %. The “Inhibition of pain reaction” value (guinea pigs [9]; 0.5%, 120 min) was 25%, the “Inhibition of pain reaction” value (guinea pigs [9]; […], 5 min) was 94.44*** % and the “Inhibition of pain reaction” value (guinea pigs [9]; […], 60 min) was 38.89* %. For the same molecule, the “MES: active at” value (mice [2]; 0.5 h) was “MES: active at 100 Rotarod: neurotoxic at 100 mg/kg”.

With `Cc1cccc(Cl)c1OCCNC(C)(CO)CO` [Compound 7, 2-((2-(2-chloro-6-methylphenoxy)ethyl)amino)-2-methylpropane-1,3-diol] the “Rotarod: neurotoxic at” value (mice [1]; 0.5 h) was “MES: active at 100 Rotarod: neurotoxic at 100 mg/kg”, the melting point was 83 to 85 °C and the “MES: active at” value (mice [2]; 0.5 h) was “MES: active at 100 Rotarod: neurotoxic at 100 mg/kg”.

In the case of `Cc1cccc(Cl)c1OCCNCC(O)c1ccccc1` (centres unmarked) [Compound 9, R,S-2-((2-(2-chloro-6-methylphenoxy)ethyl)amino)-1-phenylethan-1-oll], the “Rotarod: neurotoxic at” value (mice [1]; 0.5 h) is reported as 100 mg/kg and the “MES: active at” value (mice [2]; 0.5 h) is reported as 30 mg/kg.

With `Cc1cccc(Cl)c1OCC(=O)NCC(C)O` (centres unmarked) [Compound 10, R,S-2-(2-chloro-6-methylphenoxy)-N-(2-hydroxypropyl)acetamide] the “Rotarod: neurotoxic at” value (mice [1]; 0.5 h) was 300 mg/kg and the “ScPTZ: active at” value (mice [10]) was 300 mg/kg.

With `Cc1cccc(Cl)c1OCC(=O)NC(C)CO` (centres unmarked) [Compound 11, R,S-2-(2-chloro-6-methylphenoxy)-N-(1-hydroxypropan-2-yl)acetamide] the “Rotarod: neurotoxic at” value (mice [1]; 0.5 h) was 100 mg/kg and the “MES: active at” value (mice [2]; 0.5 h) was 300 mg/kg.

In the case of `CCC(CO)NC(=O)COc1c(C)cccc1Cl` (centres unmarked) [Compound 12, R,S-2-(2-chloro-6-methylphenoxy)-N-(1-hydroxybutan-2-yl)acetamide], the “Rotarod: neurotoxic at” value (mice [1]; 0.5 h) is reported as 300 mg/kg, the “ScPTZ: active at” value (mice [10]) is reported as 100 mg/kg and the “MES: active at” value (mice [2]; 0.5 h) is reported as 300 mg/kg.

In the case of `Cc1cccc(Cl)c1OCC(=O)NC(C)C(=O)O` (stereo not drawn) [Compound 13, R,S-(2-(2-chloro-6-methylphenoxy)acetyl)alanine], the “Antiseizure activity and preliminary toxicity screening: result” value (mice [11]) is reported as “No activity”.

With `Cc1cccc(Cl)c1OCC(=O)N[C@H](C)C(=O)O` [Compound 14, R-(+)-(2-(2-chloro-6-methylphenoxy)acetyl)alanine] the “Antiseizure activity and preliminary toxicity screening: result” value (mice [11]) was “No activity”.

In the case of `Cc1cccc(Cl)c1OCC(=O)N[C@@H](C)C(=O)O` [Compound 15, S-(-)-(2-(2-chloro-6-methylphenoxy)acetyl)alanine], the “Antiseizure activity and preliminary toxicity screening: result” value (mice [11]) is reported as “No activity”.

For `CCC(NC(=O)COc1c(C)cccc1Cl)C(=O)O` (centres unmarked) [Compound 16, R,S-2-(2-(2-chloro-6-methylphenoxy)acetamido)butanoic acid], the “Antiseizure activity and preliminary toxicity screening: result” value (mice [11]) was “No activity”.

In the case of `Cc1cccc(Cl)c1OCC(=O)N[C@H]1CC[C@H](O)CC1` [Compound 18, Trans-2-(2-chloro-6-methylphenoxy)-N-(4-hydroxycyclohexyl)acetamide], the “Number of animals active or toxic over the number tested” value (“Number … over the number tested” below) (mice [12]; 30 mg/kg, 0.5 h) is reported as 0/4, the “Number … over the number tested” value (mice [12]; 30 mg/kg, 2.0 h) is reported as 0/4 and the “Number … over the number tested” value (mice [12]; 100 mg/kg, 0.5 h) is reported as 4/4. For the same molecule, the “Number … over the number tested” value (mice [12]; 100 mg/kg, 2.0 h) was 0/4, the “Number … over the number tested” value (mice [12]; 300 mg/kg, 0.5 h) was 4/4 and the “Number … over the number tested” value (mice [12]; 300 mg/kg, 2.0 h) was 4/4. For the same molecule, the “8 Hz: active at” value (mice [12]; mice, ip, 0.5 h) was 100 mg/kg, the “Number … over the number tested” value (mice [1]; 30 mg/kg, 0.5 h) was 0/8 and the “Number … over the number tested” value (mice [1]; 30 mg/kg, 2.0 h) was 0/8. For the same molecule, the “Number … over the number tested” value (mice [1]; 100 mg/kg, 0.5 h) was 2/8, the “Number … over the number tested” value (mice [1]; 100 mg/kg, 2.0 h) was 0/8 and the “Number … over the number tested” value (mice [1]; 300 mg/kg, 0.5 h) was 8/8 (sedated). The “Number … over the number tested” value (mice [1]; 300 mg/kg, 2.0 h) was 0/8 (unable to grasp rotarod), the “Rotarod: neurotoxic at” value (mice [1]; 0.5 h) was 100 mg/kg and the “Number … over the number tested” value (mice [2]; 30 mg/kg, 0.5 h) was 3/4. The “Number … over the number tested” value (mice [2]; 30 mg/kg, 2.0 h) was 0/4, the “Number … over the number tested” value (mice [2]; 100 mg/kg, 0.5 h) was 4/4 and the “Number … over the number tested” value (mice [2]; 100 mg/kg, 2.0 h) was 0/4. The “Number … over the number tested” value (mice [2]; 300 mg/kg, 0.5 h) was 4/4, the “Number … over the number tested” value (mice [2]; 300 mg/kg, 2.0 h) was 4/4 and the “MES: active at” value (mice [2]; 0.5 h) was 30 mg/kg.

For `NCC1(CC(=O)O)CCCCC1` [Gabapentin], the “SNL ED50” value (rats) is listed as 32 mg/kg.

In the case of `CCN(CC)CC(=O)Nc1c(C)cccc1C` [Lidocaine], the “Inhibition of pain reaction” value (guinea pigs [13]; 240 min) is listed as 22.2% and the “Inhibition of pain reaction” value (guinea pigs [13]; 24 h) is listed as 0%.

For `Cc1cccc(C)c1NC(=O)C1CCCCN1C` (centres unmarked) [Mepivacaine], the “Prolongation of the time reaction” value (mice [14]; 1.0%) is given as 94.63%, the “Reaction time to painful stimulus” value (mice [14]; 1.0%) is given as 14.13 ± 2.67 s and the “Prolongation of the time reaction” value (mice [14]; 2.0%) is given as 116.67%. The “Reaction time to painful stimulus” value (mice [14]; 2.0%) was 15.73 ± 2.09 s.

For `NC(=O)N1c2ccccc2CC(=O)c2ccccc21` [Oxcarbazepine], the “SNL MED” value (rats) is listed as 10 mg/kg.

For `O=C1NC(=O)C(c2ccccc2)(c2ccccc2)N1` [Phenytoin], the “Prolongation of the time reaction” value (mice [14]; 1.0%) is listed as 18%, the “Reaction time to painful stimulus” value (mice [14]; 1.0%) is listed as 5.72 ± 0.63 s and the “Prolongation of the time reaction” value (mice [14]; 2.0%) is listed as 84%. The “Reaction time to painful stimulus” value (mice [14]; 2.0%) was 8.90 ± 0.80 s.

In the case of `CC(C)NCC(O)COc1cccc2ccccc12` (centres unmarked) [Propranolol, propranolol], the “MES ED50” value (mice [3]; Table 3) is listed as “MES: ED50 = 15–20 mg/kg”.
